Experimental data from US5958946A, “Modulation of hair growth” (priority 1998, dated 1999).

Assays:
[1] = system: glucuronidation of testosterone (UGTs); test: Induction of testosterone glucuronide formation in flank organ homogenates; assay type: biochemical, Golden Syrian hamster; details: flank organ protein, [14C]-testosterone 125 μM, UDP-glucuronic acid 5 mM, 37° C., 60 minutes
Protocol: An assay was performed to evaluate whether some of the compounds tested in the Golden Syrian Hamster assay caused an induction of testosterone glucuronide formation.
Flank organ homogenates were prepared by adding 4 flank organs into 2 mL of a buffer containing 25 mM Tris/50 mM sucrose, pH 7.4 and homogenized with a Polytron (Brinkman Instruments) while keeping the mixture on ice. The glucuronidation of testosterone was measured by incubating the 20 μl of the flank organ protein (1 mg/ml) with [^14 C]-testosterone testosterone 125 μM and UDP-glucuronic acid (5 mM) in the presence of buffer containing 0.5M Tris, pH 7.5 and 0.1M MgCl2. The total reaction mixture volume was 100 μl. Assay mixtures were incubated at 37° C. for 60 minutes, and reactions were stopped with the addition of 3.5 ml methylene chloride. An aqueous carrier (250 μl water) was added to each reaction mixture which was then shaken and centrifuged. The unmetabolized [^14 C]-testosterone remained in the organic phase whereas the testosterone glucuronide partitioned into the aqueous phase, and was quantitated by scintillation spectrometry.

flank organs = test: Flank organ diameter by caliper after topical treatment; assay type: in vivo, Golden Syrian hamster; details: for effect on flank organ diameter (in words): topical application; for % Decrease (flank organ diameter) / Decrease (mm) (flank organ diameter, treated vs vehicle) / Treated FO (mm) (flank organ diameter): topical treatment as in the hair mass assay
Protocol: It was believed that the diversion of testosterone away from its biologically active species to a glucuronide or sulfonate conjugate would have effects on the flank organs of the Golden Syrian hamster since testosterone is known to regulate the existence of these unique organs. The diameter of flank organs were assessed using a caliper following topical treatment of the hamsters with ethoxyquin or 5,7-dihydroxy-4'-methoxyflavone as described in the hair mass assay section.

[2] = system: androgen-stimulated hair growth of flank organs; test: Golden Syrian hamster assay (flank organ hair mass); assay type: in vivo; details: topical, 10% dose, thirteen applications, vehicle A, B or C per compound; for Left(mg) (hair mass of the compound-treated flank organ): 10 μl once a day
Text: Male intact Golden Syrian hamsters are considered acceptable models for human beard hair growth and other androgen-stimulated hair growth in that they display oval shaped flank organs, one on each side, each about 8 mm. in major diameter, which grow thick black and coarse hair similar to human beard hair. These organs produce hair in response to androgens in the hamster. To evaluate the effectiveness of a composition in reducing androgen-stimulated hair growth, the flank organs of each of a group of hamsters are shaved. To one organ of each animal 10 μl. of composition vehicle alone once a day is applied, while to the other organ of each animal an equal amount of the composition (including the relevant compound or compounds). After thirteen applications (one application per day for five days a week), the flank organs are shaved and the amount of recovered hair (hair mass) from each is weighed. Percent-reduction of hair growth is calculated by subtracting the hair mass (mg) value of the test compound treated side from the hair mass value of the vehicle treated side; the delta value obtained is then divided by the hair mass value of the vehicle treated side, and the resultant number is multiplied by 100.
The above-described assay will be referred to herein as the "Golden Syrian hamster" assay. Preferred compositions provide a reduction in hair growth of at least about 30%, more preferably at least about 50%, and most preferably at least about 60% when tested in the Golden Syrian hamster assay.
A number of compositions containing compounds that induce or activate UGTs for which testosterone is a substrate were tested in the Golden Syrian hamster assay; the results are provided in Table I: […]

Structure (SMILES)	% Induction (testosterone glucuronide formation) [1] [%]	effect on flank organ diameter (in words) (flank organs)	% Decrease (flank organ diameter) (flank organs) [%]	Decrease (mm) (flank organ diameter, treated vs vehicle) (flank organs)	Treated FO (mm) (flank organ diameter) (flank organs)	Left(mg) (hair mass of the compound-treated flank organ) [2]	% Inhibition (percent reduction of hair growth vs vehicle-treated side) [2] [%]
COc1ccc(-c2cc(=O)c3c(O)cc(O)cc3o2)cc1 [5,7-dihydroxy-4'-methoxyflavone]	120	decrease in flank organ diameter	12 ± 5	1.04 ± .46 mm	8.04 ± .29 mm	1.00 ± .22 mg	62 ± 9
COc1ccc(O)c(C(C)(C)C)c1 [butylhydroxyanisole]	178					0.92 ± .24 mg	61 ± 9
Cc1cc(C(C)(C)C)c(O)c(C(C)(C)C)c1 [butylhydroxytoluene]						1.74 ± .38 mg	22 ± 18
CCOc1ccc2c(c1)C(C)=CC(C)(C)N2 [ethoxyquin]	214	decrease in flank organ diameter	19 ± 4	1.65 ± .37 mm	7.18 ± .26 mm	0.55 ± .16 mg	75 ± 7
O=C1CC(c2ccccc2)Oc2ccccc21 (centres unmarked) [flavanone]						1.91 ± .22 mg	17 ± 10
O=C1C[C@@H](c2ccc(O)cc2)Oc2cc(O)cc(O)c21 [naringenin]						1.42 ± .18 mg	40 ± 8
CCC1(c2ccccc2)C(=O)NC(=O)NC1=O [phenobarbital, reference compound]	113					0.89 ± .16 mg	51 ± 11
